The values that follow are results of earlier work, collected in patent US11793981B2, “Microneedle device for control of thyroid hormone levels” (priority 2020, dated 2023).

The conditions of data set [1]: pregnancy.
For data set [2] the following is noted: hypothyroid patients receiving LT4.
A further data set relates to hypothyroidism. The conditions noted are these: LT4-treated patients, despite supposedly adequate LT4 treatment.

Like-named read-outs stand apart in the source and are kept apart here.

As for `N[C@@H](Cc1cc(I)c(Oc2cc(I)c(O)c(I)c2)c(I)c1)C(=O)O` [LT4, levothyroxine], the “crossing of the placenta” value in data set [1] was “crosses the placenta”. The half-life entry (oral LT4) is reported as “about seven”. In data set [2], the “lower serum levels of T3” value is listed as “about 10%”. Besides, the “patients with residual symptoms of hypothyroidism and lower well-being” value with hypothyroidism is 10-20%.
Consider `N[C@@H](Cc1cc(I)c(Oc2ccc(O)c(I)c2)c(I)c1)C(=O)O` [LT3, liothyronine], for which the half-life entry (oral LT3) is recorded as “hours to two days”.
